Data on eleven compounds can be found in PMC9268516 (Molecules, 2022).

A word on the IC50: it is the concentration needed to halve the response being measured. As usually defined, the melting point is the temperature of the solid-liquid transition.

In one series the test system is H1N1. The settings on record: cited from earlier work.
Another series concerns chemokine co-receptor 5. The settings on record: cited from earlier work.
The nature of another series: in vitro. The following applies: Rhesus monkey.
The test system of the next series is RAW 264.7 cells. The following applies: cited from earlier work.
A further series relates to influenza A/WSN/33 virus. The following applies: cited from earlier work.

With `CC(C)/C=c1\[nH]c(=O)/c(=C/c2ccc(O)cc2)[nH]c1=O` [(3Z,6Z)-3-(4-hydroxybenzylidene)-6-isobutylidenepiperazine-2,5-dione, reference compound], the half-inhibitory concentration (IC50) in the series on H1N1 is 6.8 ± 1.5 µM.
With `CCCCN1C(=O)[C@@H]([C@H](O)C2CCCCC2)NC(=O)C12CCN(Cc1ccc(Oc3ccc(C(=O)O)cc3)cc1)CC2` [Aplaviroc], in the series on chemokine co-receptor 5, the “binding affinity to chemokine co-receptor 5” value is “high binding affinity”.
Compound `C=CCn1c(=O)/c(=C/C(C)C)[nH]c(=O)/c1=C/c1ccccc1` [Compound 13b, (3Z,6Z)-4-Allyl-3-benzylidene-6-(2-methylpropylidene)-2,5-diketopiperazine] showed an IC50 in “in vitro” of over 128 µg/mL.
Turning to `CC(C)=CCn1c(=O)/c(=C/C(C)C)[nH]c(=O)/c1=C/c1ccccc1` [Compound 13c, (3Z,6Z)-3-Benzylidene-6-(2-methylpropylidene)-4-(3-methylbut-2-en-1-yl)-2,5-diketopiperazine], the melting point lay in the range of 175 to 178 °C. In “in vitro”, the half-maximal inhibitory concentration (IC50) was over 128 µg/mL.
As for `CC(C)/C=c1/c(=O)[nH]/c(=C\c2ccccc2)c(=O)n1C` [Compound 13d, (3Z,6Z)-3-Benzylidene-6-(2-methylpropylidene)-1-methyl-2,5-diketopiperazine], in the series “in vitro”, the IC50 was over 128 µg/mL.
`C=CCn1c(=O)/c(=C/c2ccccc2)[nH]c(=O)/c1=C/C(C)C` [Compound 13e, (3Z,6Z)-1-Allyl-3-benzylidene-6-(2-methylpropylidene)-2,5-diketopiperazine] registered a melting point of 115 to 119 °C.
`CC(C)/C=c1\[nH]c(=O)/c(=C/c2ccccc2)[nH]c1=O` [Compound 13f, (3Z,6Z)-3-Benzylidene-6-(2-methylpropylidene)-2,5-diketopiperazine]: the melting point is 243 to 246 °C. Moreover, the IC50 in the series with H1N1 was 41.5 ± 4.5 µM.
For the compound `CC(C)C=c1c(=O)[nH]c(=Cc2ccccc2)c(=O)n1CCN1CCCC1` [Compound 14c, (3Z,6E)-3-Benzylidene-6-(2-methylpropylidene)-1-(1-ethylpyrrolidine)-2,5-diketopiperazine], the melting point was in the range of 158 to 162 °C. The half-maximal inhibitory concentration (IC50) in “in vitro” was over 128 µg/mL.
As for `CC(C)/C=c1\c(=O)n(O)/c(=C/c2ccccc2)c(=O)n1C` [LS-C, reference compound], the anti-inflammatory effect result in the series with RAW 264.7 cells is recorded as “anti-inflammatory effect”. For the same compound, in the series “in vitro”, the IC50 is over 128 µg/mL.
In the case of `CC(C)/C=c1\c(=O)[nH]/c(=C/c2ccccc2)c(=O)n1C` [LS-D, reference compound], in the series on RAW 264.7 cells, the anti-inflammatory effect result is “anti-inflammatory effect”. The IC50 in the series “in vitro” is over 128 µg/mL.
With `C=CC(C)(C)c1[nH]c2ccccc2c1/C=c1\[nH]c(=O)c(=C)[nH]c1=O` [Neoechinulin B], the inhibitory rate in the series on influenza A/WSN/33 virus is listed as 70.48%.
